The values that follow come from patent US20210284621A1 (priority 2018, published 2021).

pEC50, pKi: −log10 of the molar value.

One test relates to LPS-induced PBMCs. In words: Inflammatory cytokine release from LPS-induced PBMCs (Luminex). In kind it is cell-based, human. The settings on record: fold change from LPS-treated PBMCs, compounds 10 μM (DEX 1 μg/ml) 2 h, then LPS 0.1 μg/ml 24 h, negative = reduced. Put shortly:
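Human PBMCs from healthy donors pretreated 2 hours with compound at 10 μM (triplicate), then stimulated with 0.1 μg/ml LPS for 24 hours. Supernatant cytokines measured by magnetic Luminex; values given as fold change versus LPS-treated PBMCs, negative meaning reduction; cytotoxicity also assessed.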

Test [1] has as its system 12 systems of human primary cells. In words: BioMAP Diversity PLUS phenotypic screen. The format is cell-based. The settings on record: 3.3 μM; changes at least 1.5-fold from vehicle control. The protocol: Compounds of the invention were assayed for their effects on 148 biomarkers of inflammation, immune modulation and tissue remodeling in the BioMAP® Diversity PLUS® (DiscoverX) platform designed to model aspects of human diseases in vitro (Kunkel 2004, Berg 2006, Melton 2013).
The example compounds (3.3 μM) in Table 8 induced increases or decreases in the levels of the indicated 20 biomarkers, which are at least 1.5-fold change from vehicle control and are outside the significance prediction envelop. All compounds presented in Table 8 were not cytotoxic at the concentration tested.

Test [2] has as its target T1, CB1 receptor (Homo sapiens, UniProt P21554). In words: cAMP Assay #2: Hit Hunter cAMP assay, Gi-coupled agonist activity, CB1. In kind it is cell-based. On the set-up: host or cells: PathHunter cell lines. For orientation: cAMP levels reflect the balance of adenylyl cyclase and phosphodiesterase activity.
Test [3] addresses T1, CB1 receptor. In words: cell-based. On the set-up: host or cells: PathHunter cell lines.
Test [4] concerns the target T2, CB2 receptor (Homo sapiens, UniProt P34972). In words: cAMP Assay #2: Hit Hunter cAMP assay, Gi-coupled agonist activity, CB2. The format is cell-based. The arrangement: host or cells: cAMP Hunter cell lines. The settings on record: for CB2 fold selectivity: Hit Hunter cAMP, CB1 EC50 / CB2 EC50.
Test [5] addresses T2, CB2 receptor. In words: cell-based. On the set-up: host or cells: cAMP Hunter cell lines. The method, boiled down:
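PathHunter β-Arrestin enzyme fragment complementation cells, EA-tagged β-Arrestin and PK-tagged receptor, exposed to compound for 90 to 180 minutes at 37° C. or room temperature, 1% vehicle. Chemiluminescence read 1 h after detection reagent; agonist % activity relative to vehicle and MAX control ligand.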

The target in test [6] is T1, CB1 receptor. In words: CB1 competitive radioligand binding assay ([3H] SR141716A). The arrangement: expressed in transfected cells; host or cells: Chem-1 cells. The method, boiled down:
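Chem-1 cells expressing human recombinant CB1 incubated 90 min at 37° C with 2.0 nM [3H]SR141716A and compound at 0.5 μM (1% DMSO) in HEPES pH 7.4 buffer with MgCl2, CaCl2, 0.2% BSA. Read-out is % inhibition of radioligand binding.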

The target in test [7] is T2, CB2 receptor. In words: CB2 competitive radioligand binding assay ([3H] WIN-55,212-2). The arrangement: expressed in transfected cells; host or cells: CHO-K1 cells. The settings on record: for Fold Selectivity (CB1/CB2): Table 3, ratio of Ki CB1/CB2. The method, boiled down:
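Single-concentration displacement: 2.4 nM [3H]WIN-55,212-2 competed with 0.05 μM compound (1% DMSO) for 90 min at 37 °C on human CB2 expressed in CHO-K1 cells (HEPES 20 mM, pH 7.0, 0.5% BSA). Result given as % inhibition of bound radioligand.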

The target in test [8] is T1, CB1 receptor. In words: cAMP Assay #1: CB1 adenylylcyclase assay in CHO cells. The format is cell-based. The arrangement: expressed in transfected cells; host or cells: CHO cells. The protocol:
(§1) Compounds of the invention were assayed in an adenylylcyclase assay to determine agonist activity on the CB1 and CB2 receptors, the results of which are provided in Table 4. Exemplary methods for the adenylylcyclase assay can be found in the literature, for example, in Rhee, M-H., et al. Cannabinol Derivatives: Binding to Cannabinoid Receptors and Inhibition of Adenylylcyclase. J Med Chem. 40: 3228-3233 (1997).
CB1 Activity as determined by Adenylylcyclase Assay: CB1 receptor agonist activity was measured by measuring cAMP production. A compound of the invention was incubated with CHO cells expressing human recombinant CB1 for 20 minutes at 37° C.
(§2) Determination of EC50 values: The EC50 values (concentration producing a half-maximal response) were determined by non-linear regression analysis of the concentration-response curves generated with mean replicate values using Hill equation curve fitting: Y=D+[(A−D)/(1+(C/C50)^nH)], where Y=response, A=left asymptote of the curve, D=right asymptote of the curve, C=compound concentration, and C50=EC50, and nH=slope factor. This analysis was performed using software developed at Cerep (Hill software) and validated by comparison with data generated by the commercial software SigmaPlot® 4.0 for Windows® (© 1997 by SPSS Inc.).

The target of test [9] is T2, CB2 receptor. In words: cAMP Assay #1: CB2 adenylylcyclase assay in CHO cells. In kind it is cell-based. The arrangement: expressed in transfected cells; host or cells: CHO cells. The protocol:
as §1
CB2 Activity as determined by Adenylylcyclase Assay: CB2 receptor agonist activity was measured by measuring cAMP production. A compound of the invention was incubated with CHO cells expressing human recombinant CB2 for 10 minutes at 37° C.
as §2

[10] abbreviates: OOR = out of standard curve range.

T1 sequence (P21554 whole entry): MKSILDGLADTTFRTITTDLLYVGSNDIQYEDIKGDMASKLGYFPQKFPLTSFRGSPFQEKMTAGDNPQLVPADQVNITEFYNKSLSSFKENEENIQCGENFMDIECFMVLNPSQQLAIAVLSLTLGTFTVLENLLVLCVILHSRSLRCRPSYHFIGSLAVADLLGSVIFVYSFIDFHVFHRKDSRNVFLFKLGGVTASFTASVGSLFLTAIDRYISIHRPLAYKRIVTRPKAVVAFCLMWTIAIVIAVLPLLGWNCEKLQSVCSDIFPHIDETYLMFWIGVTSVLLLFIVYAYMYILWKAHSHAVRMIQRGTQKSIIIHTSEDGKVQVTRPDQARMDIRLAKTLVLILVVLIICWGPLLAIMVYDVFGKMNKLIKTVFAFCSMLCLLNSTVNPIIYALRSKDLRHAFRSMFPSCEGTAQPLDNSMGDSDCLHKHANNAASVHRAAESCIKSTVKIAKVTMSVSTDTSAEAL
T2 sequence (P34972 whole entry): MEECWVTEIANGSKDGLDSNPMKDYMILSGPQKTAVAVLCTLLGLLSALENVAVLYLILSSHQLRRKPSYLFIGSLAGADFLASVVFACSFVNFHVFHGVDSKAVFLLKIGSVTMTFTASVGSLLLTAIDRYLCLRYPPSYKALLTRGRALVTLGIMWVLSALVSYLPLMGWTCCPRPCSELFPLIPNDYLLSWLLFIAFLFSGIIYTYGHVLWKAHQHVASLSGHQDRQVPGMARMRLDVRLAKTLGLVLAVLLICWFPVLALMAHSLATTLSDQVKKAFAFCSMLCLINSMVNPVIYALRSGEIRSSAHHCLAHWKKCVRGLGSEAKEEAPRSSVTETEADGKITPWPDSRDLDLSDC

The pKi is −log10 of the Ki, conventionally taken in molar units. A high value points to a small Ki. Regarding `CCCCCCC(C)(C)c1cc(O)c2c(c1)OC(C)(C)[C@@H]1CC=C(C(=O)NC(C)C)C[C@@H]21` [Compound 91, (6aR,10aR)-1-hydroxy-N-isopropyl-6,6-dimethyl-3-(2-methyloctan-2-yl)-6a,7,10,10a-tetrahydro-6H-benzo[c]chromene-9-carboxamide], in the test on LPS-induced PBMCs, the IL17A worked out at 1.2 fold change, the IL-1β is −1.4 fold change, the IL-4 is −1.6 fold change and the IL-6 is reported as −2.2 fold change. Further, in the test with LPS-induced PBMCs, the IL-8 is given as −1.3 fold change, the IL-10 is on record as −2.3 fold change, the MCP-1 is listed as −1.4 fold change and the TNFα is reported as −1.2 fold change. For the same molecule, in the test on LPS-induced PBMCs (setting [10]), the “IL-12 (p70)” value is listed as −1.7 fold change and the L-31 was −2.1 fold change. For the same molecule, in test [1], the “Immune modulation, cell surface and tissue remodeling biomarkers” value (from here on “Immune modulation”) was “Reduced Eotaxin-3, P-selectin, CD69, and EGFR, IL-10”. Moreover, the pEC50 at CB1 receptor [2] was 8.16. In addition, at CB1 receptor [3], the pEC50 is 7.68. At CB2 receptor [4], the pEC50 was 8.82 and the CB2 fold selectivity amounted to 4.5. Also, at CB2 receptor [5], the pEC50 is 8.77. The pKi at CB1 receptor [6] was 7.46. Further, on CB2 receptor [7], the negative logarithm of the Ki (pKi) is 8.49 and the “Fold Selectivity (CB1/CB2)” value is 10.9.

As a reminder, the inhibition is the change of the read-out against control, counted positive when it falls. A lower inhibition goes with a response near the control. `CCCCCCC(C)(C)c1cc(O)c2c(c1)OC(C)(C)c1ccc(C(=O)O)cc1-2` [Compound 31, 1-hydroxy-6,6-dimethyl-3-(2-methyloctan-2-yl)-6H-benzo[c]chromene-9-carboxylic acid]: the “Immune modulation” value in test [1] is “Reduced Eotaxin-3 and IP-10; increased MMP-1”. Besides, the pEC50 on CB1 receptor [2] was 6.20; on CB1 receptor [3], less than 5.52; at CB2 receptor [4], 7.16; on CB2 receptor [5] (PathHunter agonist mode, read-out: CB2 Activity (β-Arrestin)), 6.96; at CB1 receptor [8], less than 7.00; on CB2 receptor [9] it was 7.28. In addition, the CB2 fold selectivity on CB2 receptor [4] came out at 9.3. In addition, the pKi is less than 5.52 on CB1 receptor [6] and 5.69 at CB2 receptor [7]. Besides, 0.5 µM produced 12% inhibition at CB1 receptor [6] (0.5 μM compound, 2.0 nM [3H] SR141716A, 90 min 37° C.). At 0.05 µM the inhibition at CB2 receptor [7] (0.05 μM compound, 2.4 nM [3H] WIN-55,212-2, 90 min 37° C.) was 20%.

With `CCCCCCC(C)(C)c1cc(O)c2c(c1)OC(C)(C)[C@@H]1CC=C(C(=O)NC(C)=N)C[C@@H]21` [Compound 94, (6aR,10aR)-1-hydroxy-N-(1-iminoethyl)-6,6-dimethyl-3-(2-methyloctan-2-yl)-6a,7,10,10a-tetrahydro-6H-benzo[c]chromene-9-carboxamide], the “Immune modulation” value in [1] was “Reduced MCP-1 and CD69; increased IL-1α”. Besides, the pEC50 on CB1 receptor [2] is 8.10; at CB1 receptor [3], 7.02; at CB2 receptor [4], 8.20; on CB2 receptor [5] it was 8.37. The molecule further returned a CB2 fold selectivity at CB2 receptor [4] of 1.3. Further, the figures for the pKi at CB1 receptor [6] and at CB2 receptor [7] were 7.73 and 7.90, respectively. Also, the “Fold Selectivity (CB1/CB2)” value on CB2 receptor [7] amounted to 1.5.
